For six compounds, relative binding affinity (RBA) and IC50 results are on record in ChEMBL document CHEMBL1142390, “A set of phosphatase-inert "molecular rulers" to probe for bivalent mannose 6-phosphate ligand-receptor interactions” (Bioorg Med Chem Lett, 2008).

Assay [1] concerns the target Cation-independent mannose-6-phosphate receptor (Bos taurus) (UniProt P08169). The experiment in a line: Displacement of pentamannosyl phosphate bovine serum albumin from M6P/IGF2R relative to M6P.
Assay [2] shares this target. The experiment in a line: Displacement of pentamannosyl phosphate bovine serum albumin from M6P/IGF2R.

A value given as a limit tells only on which side of the number the result lay.

Sequence of Cation-independent mannose-6-phosphate receptor (Bos taurus) (P08169 whole entry, looked up): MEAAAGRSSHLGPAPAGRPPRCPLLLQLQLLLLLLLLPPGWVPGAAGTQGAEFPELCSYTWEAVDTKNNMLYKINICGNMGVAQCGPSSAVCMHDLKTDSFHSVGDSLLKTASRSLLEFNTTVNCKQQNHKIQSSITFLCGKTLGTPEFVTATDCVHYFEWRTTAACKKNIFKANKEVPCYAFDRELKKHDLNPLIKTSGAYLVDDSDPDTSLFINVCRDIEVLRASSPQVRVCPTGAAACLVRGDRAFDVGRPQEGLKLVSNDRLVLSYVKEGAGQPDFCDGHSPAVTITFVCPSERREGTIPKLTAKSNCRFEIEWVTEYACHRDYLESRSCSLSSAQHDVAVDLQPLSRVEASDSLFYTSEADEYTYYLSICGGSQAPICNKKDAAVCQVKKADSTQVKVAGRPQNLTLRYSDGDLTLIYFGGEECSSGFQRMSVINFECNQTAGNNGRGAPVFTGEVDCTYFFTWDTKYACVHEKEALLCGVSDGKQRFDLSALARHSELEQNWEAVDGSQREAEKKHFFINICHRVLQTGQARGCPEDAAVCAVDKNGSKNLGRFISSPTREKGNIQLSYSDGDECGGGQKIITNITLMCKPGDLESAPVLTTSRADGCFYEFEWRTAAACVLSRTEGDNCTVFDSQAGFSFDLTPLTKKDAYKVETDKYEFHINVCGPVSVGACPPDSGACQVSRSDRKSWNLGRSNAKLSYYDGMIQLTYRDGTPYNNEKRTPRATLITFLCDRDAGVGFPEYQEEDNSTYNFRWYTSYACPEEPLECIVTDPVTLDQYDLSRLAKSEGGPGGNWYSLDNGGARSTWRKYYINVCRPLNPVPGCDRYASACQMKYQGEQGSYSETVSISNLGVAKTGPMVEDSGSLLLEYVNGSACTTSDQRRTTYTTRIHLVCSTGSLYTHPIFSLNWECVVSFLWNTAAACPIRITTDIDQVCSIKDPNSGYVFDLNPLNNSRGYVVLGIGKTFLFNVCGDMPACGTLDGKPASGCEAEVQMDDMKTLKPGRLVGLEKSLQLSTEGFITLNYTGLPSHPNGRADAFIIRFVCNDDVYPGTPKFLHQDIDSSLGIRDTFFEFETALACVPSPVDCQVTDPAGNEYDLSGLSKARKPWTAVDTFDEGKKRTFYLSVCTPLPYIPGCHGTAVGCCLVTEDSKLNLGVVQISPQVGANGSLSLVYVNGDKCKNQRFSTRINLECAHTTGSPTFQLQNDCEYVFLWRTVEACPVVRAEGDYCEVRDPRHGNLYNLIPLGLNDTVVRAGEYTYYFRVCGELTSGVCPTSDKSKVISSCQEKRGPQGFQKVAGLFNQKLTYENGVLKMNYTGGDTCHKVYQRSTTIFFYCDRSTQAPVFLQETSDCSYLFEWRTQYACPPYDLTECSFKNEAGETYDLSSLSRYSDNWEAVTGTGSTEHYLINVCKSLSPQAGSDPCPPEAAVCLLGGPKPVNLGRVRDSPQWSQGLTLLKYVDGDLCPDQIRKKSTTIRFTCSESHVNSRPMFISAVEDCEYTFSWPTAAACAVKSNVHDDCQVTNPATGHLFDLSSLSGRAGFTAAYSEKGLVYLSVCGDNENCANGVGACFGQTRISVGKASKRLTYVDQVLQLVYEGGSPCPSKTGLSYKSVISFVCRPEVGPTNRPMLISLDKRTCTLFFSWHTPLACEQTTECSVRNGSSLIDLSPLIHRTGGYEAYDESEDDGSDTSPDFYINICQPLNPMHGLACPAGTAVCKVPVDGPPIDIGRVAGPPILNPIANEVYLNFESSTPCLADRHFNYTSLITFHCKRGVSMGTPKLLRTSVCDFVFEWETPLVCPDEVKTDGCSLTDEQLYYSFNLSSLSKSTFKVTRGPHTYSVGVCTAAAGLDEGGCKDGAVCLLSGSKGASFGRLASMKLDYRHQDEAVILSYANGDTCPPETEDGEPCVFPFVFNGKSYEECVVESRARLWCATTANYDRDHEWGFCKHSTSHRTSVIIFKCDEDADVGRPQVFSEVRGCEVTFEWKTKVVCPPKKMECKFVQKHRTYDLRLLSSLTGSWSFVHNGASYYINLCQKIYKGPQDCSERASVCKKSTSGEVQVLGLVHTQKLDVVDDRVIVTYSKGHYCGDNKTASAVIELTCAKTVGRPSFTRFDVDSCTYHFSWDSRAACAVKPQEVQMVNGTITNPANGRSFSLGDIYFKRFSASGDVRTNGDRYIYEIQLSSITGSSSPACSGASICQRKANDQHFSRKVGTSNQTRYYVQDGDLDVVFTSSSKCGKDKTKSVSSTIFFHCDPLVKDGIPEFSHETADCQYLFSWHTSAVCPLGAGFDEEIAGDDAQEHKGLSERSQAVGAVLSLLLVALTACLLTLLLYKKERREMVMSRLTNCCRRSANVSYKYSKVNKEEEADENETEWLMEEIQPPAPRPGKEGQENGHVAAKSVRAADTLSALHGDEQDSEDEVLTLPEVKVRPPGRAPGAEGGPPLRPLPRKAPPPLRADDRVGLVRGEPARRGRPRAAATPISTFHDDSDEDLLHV

Consider `CC(=O)NCCCC[C@H](NC(=O)[C@@H](NC(C)=O)[C@@H](C)O[C@H]1O[C@H](CO)[C@@H](O)[C@H](O)[C@@H]1O[C@H]1O[C@H](COP(=O)(O)O)[C@@H](O)[C@H](O)[C@@H]1O)C(=O)N[C@H](C(N)=O)[C@@H](C)O[C@H]1O[C@H](CO)[C@@H](O)[C@H](O)[C@@H]1O[C@H]1O[C@H](COP(=O)(O)O)[C@@H](O)[C@H](O)[C@@H]1O`, for which the relative binding affinity (RBA) in assay [1] is 144. Also, the IC50 in assay [2] worked out at 1.8 µM.

In the case of `CC(=O)N[C@H](C(=O)N[C@@H](CCCCNC(=O)c1ccccc1N)C(=O)N[C@H](C(N)=O)[C@@H](C)O[C@H]1O[C@H](CO)[C@@H](O)[C@H](O)[C@@H]1O[C@H]1O[C@H](COP(=O)(O)O)[C@@H](O)[C@H](O)[C@@H]1O)[C@@H](C)O[C@H]1O[C@H](CO)[C@@H](O)[C@H](O)[C@@H]1O[C@H]1O[C@H](COP(=O)(O)O)[C@@H](O)[C@H](O)[C@@H]1O`, the relative binding affinity (RBA) in assay [1] was 2890. Further, in assay [2], the IC50 was determined as 0.09 µM.

For `O=P(O)(O)OC[C@H]1OC(O)[C@@H](O)[C@@H](O)[C@@H]1O` (stereo not given in full), the IC50 in assay [2] turned out to be 11.5 µM.

With `O=P(O)(O)OC[C@H]1O[C@@H](O)[C@H](O)[C@@H](O)[C@@H]1O`, the IC50 in assay [2] was greater than 10 µM.

Compound `CC(=O)N[C@H](C(=O)N[C@@H](CCCCN)C(=O)N[C@H](C(N)=O)[C@@H](C)O[C@H]1O[C@H](CO)[C@@H](O)[C@H](O)[C@@H]1O[C@H]1O[C@H](COP(=O)(O)O)[C@@H](O)[C@H](O)[C@@H]1O)[C@@H](C)O[C@H]1O[C@H](CO)[C@@H](O)[C@H](O)[C@@H]1O[C@H]1O[C@H](COP(=O)(O)O)[C@@H](O)[C@H](O)[C@@H]1O` had a relative binding affinity (RBA) in assay [1] of 13. The compound also returned an IC50 in assay [2] of 20 µM.

Compound `O=P(O)(O)OC[C@H]1O[C@H](OCCCCCCCCCCCCO[C@H]2O[C@H](COP(=O)(O)O)[C@@H](O)[C@H](O)[C@@H]2O)[C@@H](O)[C@@H](O)[C@@H]1O` showed a relative binding affinity (RBA) in assay [1] of 3.02. Also, in assay [2], the IC50 was determined as 3.7 µM.

Usually IC50 stands for the concentration at which inhibition is half-maximal. Low values mean greater potency, high ones weaker potency.
